# Molecular target: cAMP-dependent protein kinase catalytic subunit alpha (Bos taurus, UniProt P00517)
# Assay: PKA In Vitro Enzyme Assay
# Conditions: pH 7.2; 22 °C
# Experimental: The recombinant alpha catalytic subunit of bovine PKA was assayed with a peptide substrate and test compound in the presence of 40 uM ATP/ [gamma-33P]ATP in 96-well plates. […] IC50 values were determined from an eight-point concentration range run in duplicate and calculated in GraphPad Prism 4.00.
structure (smiles),measurement,value
Cc1n[nH]c2ccc(-c3cncc(OC[C@@H](N)Cc4c[nH]c5ccccc45)c3)cc12 [5-{5-[(2S)-2-amino-3-(1H-indol-3-yl)propoxy]pyridin-3-yl}-3-methyl-1H-indazole],IC50,27 nM

# Reference: BindingDB's records for doi:10.1016/j.jmb.2007.01.004 (Astex Therapeutics, 2007)
